Measured values reported in US8609610B2, “Inhibitors of the trypsin-like site of the proteasome and methods of use thereof” (Trustees of Dartmouth College, priority 2011, dated 2013).

Columns and labels:
chymotrypsin-like sites = details: patients treated with bortezomib, maximal tolerated doses; cited from earlier work
[1] = tested on: T1, chymotrypsin-like sites (β5) of proteasome in MM cells; assay: PROTEASOMEGLO assay of proteasome inhibition in MM cells; type: cell-based; details: for Inhibition of chymotrypsin-like sites, 6 h −NC-022 / Inhibition of chymotrypsin-like sites, 6 h +NC-022: washout
T1 construct: other: NCI-H929; bortezomib 100 nM 1 h; bortezomib 11 nM 1 h; bortezomib 3.7 nM 1 h; bortezomib 33 nM 1 h; other: NCI-H9

[2] = tested on: chymotrypsin-like sites (β5) of proteasome in MM cells; assay: as above; type: cell-based; details: KMS-12-BM, washout
[3] = biological target: T2, trypsin-like sites (β2) of proteasome in MM cells (Homo sapiens, UniProt Q99436); assay: as above; type: cell-based; details: for Inhibition of trypsin-like sites, 6 h +NC-022 / Inhibition of trypsin-like sites, 6 h −NC-022: washout
T2 construct: endogenous in cells; host or cells: NCI-H929, RPMI-8226 and other MM cell lines
T2 sequence (Q99436 44-277): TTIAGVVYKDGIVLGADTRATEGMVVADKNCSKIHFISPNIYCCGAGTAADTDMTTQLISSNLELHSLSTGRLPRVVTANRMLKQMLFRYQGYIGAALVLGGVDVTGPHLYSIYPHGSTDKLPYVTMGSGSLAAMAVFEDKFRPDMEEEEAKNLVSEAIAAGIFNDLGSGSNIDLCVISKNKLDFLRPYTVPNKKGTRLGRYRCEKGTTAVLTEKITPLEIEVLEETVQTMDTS

KMS-12-BM cells = assay: ALAMAR BLUE cell viability assay; type: cell-based; details: viability at 48 h
Outline: (§1)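 Myeloma lines were grown in RPMI-1640 with 10% FBS; viability of myeloma cells was read by ALAMAR BLUE mitochondrial dye conversion. PBMNC viability used CELL TITER-GLO ATP luminescence. Caspase-3/7 activity in NCI-H929 and MM1.R was measured with the APO-ONE homogeneous assay.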

NCI-H929 cells = assay: ALAMAR BLUE cell viability assay; type: cell-based; details: NCI-H929, viability at 48 h
Outline: as §1

[4] = KMS-12-BM, bortezomib 33.3 nM 1 h
[5] = KMS-12-BM, bortezomib 100 nM 1 h
[6] = KMS-12-BM, bortezomib 300 nM 1 h
[7] = KMS-12-BM, bortezomib 900 nM 1 h
[8] = NCI-H929, bortezomib 3.7 nM 1 h
[9] = NCI-H929, bortezomib 100 nM 1 h

## CC(C)C[C@H](NC(=O)[C@H](Cc1ccccc1)NC(=O)c1cnccn1)B(O)O [Bortezomib]
chymotrypsin-like sites
  inhibition of the chymotrypsin-like sites in patients: ≤ 70%
[1]; [4]
  Inhibition of chymotrypsin-like sites, 1 h: 82 ± 8 % control
  Inhibition of chymotrypsin-like sites, 6 h −NC-022: 56 ± 24 % control
[1]; [5]
  Inhibition of chymotrypsin-like sites, 1 h: 90 ± 6 % control
  Inhibition of chymotrypsin-like sites, 6 h −NC-022: 64 ± 23 % control
[1]; [6]
  Inhibition of chymotrypsin-like sites, 1 h: 93 ± 3 % control
  Inhibition of chymotrypsin-like sites, 6 h +NC-022: 83 ± 6 % control
  Inhibition of chymotrypsin-like sites, 6 h −NC-022: 76 ± 18 % control
[1]; [7]
  Inhibition of chymotrypsin-like sites, 1 h: 93 ± 5 % control
  Inhibition of chymotrypsin-like sites, 6 h +NC-022: 88 ± 5 % control
  Inhibition of chymotrypsin-like sites, 6 h −NC-022: 84 ± 16 % control
[1]; [8]
  Inhibition of chymotrypsin-like sites, 1 h: 9 ± 7 % control
  Inhibition of chymotrypsin-like sites, 6 h +NC-022: 14 ± 13 % control
  Inhibition of chymotrypsin-like sites, 6 h −NC-022: 13 ± 1 % control
[1]; NCI-H929, bortezomib 11 nM 1 h
  Inhibition of chymotrypsin-like sites, 1 h: 64 ± 7 % control
  Inhibition of chymotrypsin-like sites, 6 h +NC-022: 34 ± 29 % control
  Inhibition of chymotrypsin-like sites, 6 h −NC-022: 41 ± 3.5 % control
[1]; NCI-H929, bortezomib 33 nM 1 h
  Inhibition of chymotrypsin-like sites, 1 h: 89 ± 2 % control
  Inhibition of chymotrypsin-like sites, 6 h +NC-022: 48 ± 35 % control
  Inhibition of chymotrypsin-like sites, 6 h −NC-022: 85 ± 4 % control
[1]; [9]
  Inhibition of chymotrypsin-like sites, 1 h: 96 ± 2 % control
  Inhibition of chymotrypsin-like sites, 6 h +NC-022: 93 ± 2 % control
  Inhibition of chymotrypsin-like sites, 6 h −NC-022: 86 ± 1 % control
[2]; bortezomib 33.3 nM 1 h
  Inhibition of chymotrypsin-like sites, 6 h +NC-022: 62 ± 7 % control
[2]; bortezomib 100 nM 1 h
  Inhibition of chymotrypsin-like sites, 6 h +NC-022: 75 ± 6 % control
[3]; [4]
  Inhibition of trypsin-like sites, 1 h: 10 ± 11 % control
  Inhibition of trypsin-like sites, 6 h +NC-022: 92 ± 0 % control
  Inhibition of trypsin-like sites, 6 h −NC-022: 8 ± 15 % control
[3]; [5]
  Inhibition of trypsin-like sites, 1 h: 19 ± 3 % control
  Inhibition of trypsin-like sites, 6 h +NC-022: 92 ± 1 % control
  Inhibition of trypsin-like sites, 6 h −NC-022: 15 ± 11 % control
[3]; [6]
  Inhibition of trypsin-like sites, 1 h: 22 ± 12 % control
  Inhibition of trypsin-like sites, 6 h +NC-022: 91 ± 2 % control
  Inhibition of trypsin-like sites, 6 h −NC-022: 24 ± 18 % control
[3]; [7]
  Inhibition of trypsin-like sites, 1 h: 28 ± 5 % control
  Inhibition of trypsin-like sites, 6 h +NC-022: 93 ± 1 % control
  Inhibition of trypsin-like sites, 6 h −NC-022: 26 ± 19 % control
[3]; [8]
  Inhibition of trypsin-like sites, 1 h: 0 ± 7 % control
  Inhibition of trypsin-like sites, 6 h +NC-022: 93 ± 2 % control
  Inhibition of trypsin-like sites, 6 h −NC-022: 6 ± 4 % control
[3]; NCI-H929, bortezomib 11 nM 1 h
  Inhibition of trypsin-like sites, 1 h: 8 ± 11 % control
  Inhibition of trypsin-like sites, 6 h +NC-022: 93 ± 2 % control
  Inhibition of trypsin-like sites, 6 h −NC-022: 14 ± 2 % control
[3]; NCI-H929, bortezomib 33 nM 1 h
  Inhibition of trypsin-like sites, 1 h: 26 ± 15 % control
  Inhibition of trypsin-like sites, 6 h +NC-022: 94 ± 1 % control
  Inhibition of trypsin-like sites, 6 h −NC-022: 31 ± 0 % control
[3]; [9]
  Inhibition of trypsin-like sites, 1 h: 36 ± 17 % control
  Inhibition of trypsin-like sites, 6 h +NC-022: 96 ± 1 % control
  Inhibition of trypsin-like sites, 6 h −NC-022: 45 ± 2 % control
KMS-12-BM cells; bortezomib 33.3 nM 1 h
  Viability +NC-022: 72 ± 1 % control
  Viability −NC-022: 98 ± 13 % control
KMS-12-BM cells; bortezomib 100 nM 1 h
  Viability +NC-022: 42 ± 10 % control
  Viability −NC-022: 92 ± 9 % control
KMS-12-BM cells; bortezomib 300 nM 1 h
  Viability +NC-022: 14 ± 11 % control
  Viability −NC-022: 66 ± 9 % control
KMS-12-BM cells; bortezomib 900 nM 1 h
  Viability +NC-022: 3.8 ± 2.5 % control
  Viability −NC-022: 14 ± 12 % control
NCI-H929 cells; bortezomib 3.7 nM 1 h
  Viability +NC-022: 85 ± 3 % control
  Viability −NC-022: 107 ± 5 % control
NCI-H929 cells; bortezomib 11 nM 1 h
  Viability +NC-022: 65 ± 1 % control
  Viability −NC-022: 106 ± 2 % control
NCI-H929 cells; bortezomib 33 nM 1 h
  Viability +NC-022: 19 ± 19 % control
  Viability −NC-022: 53 ± 17 % control
NCI-H929 cells; bortezomib 100 nM 1 h
  Viability +NC-022: 1.9 ± 1.5 % control
  Viability −NC-022: 2.9 ± 1.5 % control
